Measured values: patent US5190957A, “Treatment of multi-drug resistant tumors with quinolyl-and isoquinolyloxazole-2-ones” (Merrell Dow Pharmaceuticals Inc., priority 1992, dated 1993)
Read-outs that look alike come from different tables or passages of the source.

What was measured:
[1] = test system: multidrug-resistant tumors; details: reported previously; cited from earlier work
[2] = test system: CHO^R cells (vinblastine (VBL) resistant tumor cell line); assay: Reversal of multidrug resistance (MDR) in CHO^R cells: cell growth with test compound with or without vinblastine (VLB); type: cell-based; details: 72 hr
Description: CHO^R cells were plated at a density of 1X105/35mm dish and were allowed to grow overight at 37° C. in a CO2 incubator. The medium was replaced with medium containing the compounds and vinblastine (0.2 μg/ml). The cells were allowed to grow for further 72 hr and the cell number was determined by Coulter counter after trypsiunization.

In the case of C=C[C@H]1C[N@@]2CC[C@H]1C[C@@H]2[C@@H](O)c1ccnc2ccc(OC)cc12 [Quinidine], the “reversal of drug resistance in multidrug-resistant tumors” value (“reversal of drug resistance” for short) [1] is listed as “reverse drug resistance”.
For CCCc1[nH]c(=O)oc1-c1ccnc2ccccc12 [4-PROPYL-5-(4-QUINOLINYL)-2(3H)-OXAZOLONE], the inhibition at 0.1 µg/mL ([2]; 0.1 μg/ml compound + vinblastine 0.2 μg/ml, read-out: % Inhibition of Cell Growth, Compound + VLB) was 4%, the inhibition at 0.1 µg/mL ([2]; 0.1 μg/ml compound, no VLB, read-out: % Inhibition of Cell Growth, Compound Only) was 0% and the inhibition at 1 µg/mL ([2]; 1 μg/ml compound + vinblastine 0.2 μg/ml, read-out: % Inhibition of Cell Growth, Compound + VLB) was 43%. For the same compound, the inhibition at 1 µg/mL ([2]; 1 μg/ml compound, no VLB, read-out: % Inhibition of Cell Growth, Compound Only) was 0%, the inhibition at 5 µg/mL ([2]; 5 μg/ml compound + vinblastine 0.2 μg/ml, read-out: % Inhibition of Cell Growth, Compound + VLB) was 93% and the inhibition at 5 µg/mL ([2]; 5 μg/ml compound, no VLB, read-out: % Inhibition of Cell Growth, Compound Only) was 0%. For the same compound, the inhibition at 10 µg/mL ([2]; 10 μg/ml compound + vinblastine 0.2 μg/ml, read-out: % Inhibition of Cell Growth, Compound + VLB) was 93% and the inhibition at 10 µg/mL ([2]; 10 μg/ml compound, no VLB, read-out: % Inhibition of Cell Growth, Compound Only) was 14%.
For COc1ccc([C@@H]2Sc3ccccc3N(CCN(C)C)C(=O)[C@@H]2OC(C)=O)cc1 [diltiazem], the “reversal of drug resistance” value [1] is listed as “reverse drug resistance”.
For COc1ccc(CCN(C)CCCC(C#N)(c2ccc(OC)c(OC)c2)C(C)C)cc1OC (stereo not shown) [verapamil], the “reversal of drug resistance” value [1] is given as “reverse drug resistance”.
In the case of CC[C@]1(O)C[C@@H]2CN(CCc3c([nH]c4ccccc34)[C@@](C(=O)OC)(c3cc4c(cc3OC)N(C)[C@H]3[C@@](O)(C(=O)OC)[C@H](OC(C)=O)[C@]5(CC)C=CCN6CC[C@]43[C@@H]65)C2)C1 [VLB, vinblastine, reference compound], the “effect on cell growth of VLB alone” value ([2]; VLB alone, 0.2 μg/ml) is reported as “did not have any effect on cell growth”.
For COC(=O)[C@H]1[C@H]2C[C@@H]3c4[nH]c5cc(OC)ccc5c4CCN3C[C@H]2C[C@@H](OC(=O)c2cc(OC)c(OC)c(OC)c2)[C@@H]1OC [reserpine], the “reversal of drug resistance” value [1] is listed as “reverse drug resistance”.
